Measured values taken from patent US20210023223A1, “HYDROCARBON / LIPID - CAROTENOID COMPLEXES” (IP SCIENCE LIMITED, priority 2018, published 2021).
Where two headings read alike, the source gives them in different places.

Columns and labels:
[1] = Lycopene in serum and cerumen after 20 mg lycopene for 1 month; format: in vivo, human; conditions: n = 18; for concentration at 1 month: both sexes, human, oral, after 20 mg lycopene daily for one month
Protocol: Study Design. The total number of volunteers recruited to take part in the study was 18 (9 male and 9 female subjects) Caucasians 40-67 years old.
Products Formulated with Lycopene was developed and made by Lycotec Ltd. (Cambridge, United Kingdom). The daily dose was 1 capsule of 20 mg of lycopene, and it was taken with the main meal of the day. The period of administration was 1 month.
Blood was collected by phlebotomy in the morning, in the hospital, from the arm veins of patients following night fast. The serum was separated from the rest of the clotted mass by centrifugation; aliquots were then stored in code-labelled tubes for blinded analysis and stored at −80° C. until use.
For sample collection from the surface of the facial skin and samples of the cerumen all study participants were requested to avoid facial and ear hygienic manipulations for 24 hours before sampling, which was carried out in the morning in parallel with blood sample collection. Skin surface sample collection and preparation was performed as previously described. Briefly, samples were collected using polyester swabs from the surface of the facial skin (the sides of the nose). During the procedure two samples were taken (one swab per side). Each collected sample was placed on the surface of a microscope slide. A second microscope slide was pressed against the surface of the first one. This procedure provided a pair of identical smears. All slides with collected samples were coded to provide sample anonymity for blinded analysis and stored at −20° C. until further analysis.
The lycopene concentration in all serum samples was measured in duplicate by high-performance liquid chromatography with modifications. Briefly, 400 μl of serum was mixed with 400 μl of ethanol and was extracted twice with 2 ml hexane. The combined hexane layers were evaporated to dryness in a vacuum (Scan Speed 32 centrifuge) and the residue reconstituted to a volume of 100 μl in sample solution (absolute ethanol—methylene chloride, 5:1, v/v). The specimens were centrifuged again (15 minutes at 10,000 g) and clear supernatant was transferred to HPLC vials. Five microliters of the extract was injected into an Acquity HSS T3 75×2.1 mm 1.8 μm column (Waters, USA) preceded by a Acquity HSS T3 1.8 μm VanGuard precolumn (Waters, USA) and eluted isocratically at 45° C. with the mobile phase (acetonitrile—0.08% phosphoric acid solution—tert-Butyl methyl ether, 70:5:25, v/v/v) at a flow rate of 0.5 ml/min. The lycopene peak was detected by a Photodiode Array Detector (Waters, USA) at 474 nm. The peak area was measured using Empower 3 software (Waters, Mass.). The lycopene concentration in serum samples was calculated by reference to an analytical standard (lycopene from tomato, L9879, Sigma, USA).

Melting time at 37° C. = format: physicochemical
Protocol: (§1) Approximately 20 mg of butter, or pork fat, or beef fat, or cocoa butter, or chocolate, with or without certain concentrations of carotenoids, were placed on the surface of the laboratory slides and incubated at 37° C. in a laboratory incubator (TLK39).

[2] = Size of pork fat globules, microscopy; format: physicochemical; conditions: maximum doses
Protocol: For measurement of lipid droplets and fat globules and quantification of their size binocular microscope Olympus BX41 was used with Cell^B software for morphometric analysis. All parameters were collected from 10 randomly selected microscopic fields at ×1000).
When carotenoids were added to animal fat, with a relatively high percentage of saturated fatty acid, a similar trend in increased fat globules was observed, although to a lesser degree. The maximum doses of lycopene or astaxanthin caused a similar increase in the pork fat globules diameter, only 50%, FIG. 2 and table 3.

Melting time = format: physicochemical; conditions: lycopene 0.25 to 0.5 mg per 1 gram
Protocol: as §1
For example, in experiments with the chocolate spread, when the lycopene was 0.25 to 0.5 mg per 1 gram of this product its melting time reduced by 30-35%, FIG. 18.

[3] = Hydrophobicity as oxygen gas solubility (micellar red-ox catalymetry); format: physicochemical
Source text: It is known that gas molecules are more soluble in hydrophobic domains than in polar structures or liquids. For example, solubility of molecular oxygen could be 4 to 10 fold greater in intact lipid membrane than in a surrounding aqueous solution [1-5]. In other words one can use the measure of soluble gas in lipids, or other […], as a measure of its hydrophobicity. This approach seem logical, however to the best of our knowledge has never been published.
Here we describe a new method to measure hydrophobicity of lipids as a function of concentration of soluble molecular oxygen within their matrix.
There are a number of ways to measure molecular oxygen in solid, crystal and indeed lipid structures. Almost all of them are physical methods such as ESR [1] or polarography. However, we decided to use much simpler and faster micellar acceleration red-ox catalymetry. This test can measure O2 in a dozen parallel samples not only lipids in model systems but also in circulating lipoproteins from human blood.
The physical expansion of the size of the oil droplets observed in the above experiments was estimated by independent measurements on changes in their hydrophobicity. […] With this approach it was possible to detect these changes when ratio lycopene to fatty acids reached 1 to 10,000 and then it was a dose dependent effect. This rise reached its plateau level at the ratio 1:4,000.

[4] = Defrosting time of frozen oil; format: physicochemical
Protocol: To determined defrosting time, frozen oil aliquots of 200 μI were incubated at ambient temperature of 20±2 C° until they were completely melted. Period of time, which was required for the tested sample to be melted, was measured with a laboratory timer (QUANTUM).

[5] = tested on: individuals with a moderate hyperlipidemia; test: Clinical Trial DHA-Lycopene, 4 weeks; format: in vivo, human; conditions: medians, DHA 250 mg and/or lycopene 7 mg once a day
Protocol: To validate this, a clinical trial was undertaken. 32 individuals aged 40-65 years old with a moderate hyperlipidemia (serum triglycerides, TG, >150 mg/dl and LDL from 130 to 160 mg/dl). They were randomised and split in four groups of 8: • The first was supplemented with a 250 mg of conventional formulation of DHA without lycopene (CF-DHA), • the second with 7 mg of lycopene, • the third with 250 mg of DHA and 7 mg of lycopene co-ingested at the same time but as two separate products, and • the fourth group received 7 mg lycopene formulated with 250 mg of DHA (LF-DHA). All products were taken once a day with the main meal. The duration of the trial was for 4 weeks.

SMILES: CC(C)=CCC/C(C)=C/C=C/C(C)=C/C=C/C(C)=C/C=C/C=C(C)/C=C/C=C(C)/C=C/C=C(\C)CCC=C(C)C [Lycopene]
- Lycopene in cerumen ([1]; before): 0.29 ± 0.05 ng/mg
- Lycopene in serum ([1]; before): 137 ± 14.5 ng/mL
- concentration at 1 month ([1]; cerumen, read-out: Lycopene in cerumen): 900 ± 120 ng/g
- concentration at 1 month ([1]; serum, read-out: Lycopene in serum): 0.31 ± 0.0299 µg/mL
- Reduction of melting time of cocoa butter (Melting time at 37° C.; 0.3 mg per 1 g): more than 8 fold
- Reduction of melting time of white chocolate (Melting time at 37° C.; 0.3 mg per 1 g of the chocolate): under 3 fold
- Melting time of white chocolate (Melting time at 37° C.; 0.3 mg per 1 g of the chocolate, control 11 minutes): 4 min
- Melting time of cocoa butter (Melting time at 37° C.; 0.3 mg per 1 g, control 16.5 minutes): 2 min
- Increase in the pork fat globules diameter [2]: 50%
- Reduction of melting time of chocolate spread (Melting time): 30-35%
- Hydrophobicity in terms of gas solubility ([3]; ratio of molecules of lycopene per molecules of fatty acids 1:3,000): 248-287 10^−6 M O2 per mg of sunflower oil
- Hydrophobicity in terms of gas solubility ([3]; ratio of molecules of lycopene per molecules of fatty acids 1:4,000): 275-321 10^−6 M O2 per mg of sunflower oil
- Hydrophobicity in terms of gas solubility ([3]; ratio of molecules of lycopene per molecules of fatty acids 1:5,000): 197-198 10^−6 M O2 per mg of sunflower oil
- Hydrophobicity in terms of gas solubility ([3]; ratio of molecules of lycopene per molecules of fatty acids 1:10,000): 180-182 10^−6 M O2 per mg of sunflower oil
- Hydrophobicity in terms of gas solubility ([3]; ratio of molecules of lycopene per molecules of fatty acids 1:20,000): 143-155 10^−6 M O2 per mg of sunflower oil
- Reduction of thawing time of Canola/Rapeseed oil ([4]; 0.3 mg per 1 ml of the oil): over 2 fold
- Reduction of thawing time of Olive oil ([4]; 0.3 mg per 1 ml of the oil): 10 fold
- Thawing time of Canola/Rapeseed oil ([4]; 0.3 mg per 1 ml of the oil, control 85 seconds): 40 s
- Thawing time of Cod Liver oil ([4]; 0.3 mg per 1 ml of the oil, control 120): 55 s
- Thawing time of frozen Olive oil ([4]; 0.3 mg per 1 ml of the oil, controls 60 (lycopene) and 48 seconds (astaxanthin)): 6 s
- Reduction of thawing time of Sunflower oil ([4]; 0.3 mg per 1 ml the oil): 17 fold
- LDL ([5]; 0 w): 156.0 mg/dL
- Triglycerides ([5]; 0 w): 203.5 mg/dL
- LDL ([5]; 4 w): 155.5 mg/dL
- Triglycerides ([5]; 4 w): 190.0 mg/dL
